In the supplement of paper PMC10733146:

Assays:
Experiment in all cases: viability relative to DMSO control (fraction); higher = less drug effect (more viable cells)
Conditions in all cases: 48 h
CPI-169 = compound: CCS(=O)(=O)N1CCC([C@@H](C)n2c(C)c(C(=O)NCc3c(OC)cc(C)[nH]c3=O)c3ccccc32)CC1 [CPI-169]
How it was run: (§1)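 Compounds were pre-plated at five concentrations, one well each, in 384-well plates, and primary mononuclear tumour cells were plated on them at 4 × 10^4 cells per well. The cells, fresh or cryopreserved, had been Ficoll-isolated from blood or bone marrow or taken from processed lymph node. After 48 h at 37 °C and 5% CO2 in RPMI-1640 with penicillin/streptomycin, L-glutamine and human serum, viability was read as CellTiter-Glo luminescence relative to the median of 16 inner DMSO wells.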

EPZ-6438 = compound: CCN(c1cc(-c2ccc(CN3CCOCC3)cc2)cc(C(=O)NCc2c(C)cc(C)[nH]c2=O)c1C)C1CCOCC1 [EPZ-6438]
How it was run: as §1

[1] = compound: C[C@H]1C[C@@H](n2c(Nc3ccc(OC(F)(F)F)cc3)nc3cc(CCC(=O)O)ccc32)CC(C)(C)C1
How it was run: as §1

Etoposide = compound: COc1cc([C@@H]2c3cc4c(cc3[C@@H](O[C@@H]3O[C@@H]5CO[C@@H](C)O[C@H]5[C@H](O)[C@H]3O)[C@H]3COC(=O)[C@H]23)OCO4)cc(OC)c1O [Etoposide]
How it was run: as §1

Thalidomide = compound: O=C1CCC(N2C(=O)c3ccccc3C2=O)C(=O)N1 [Thalidomide]
How it was run: as §1

Pomalidomide = compound: Nc1cccc2c1C(=O)N(C1CCC(=O)NC1=O)C2=O [Pomalidomide]
How it was run: as §1

SGC 0946 = compound: CC(C)N(CCCNC(=O)Nc1ccc(C(C)(C)C)cc1)C[C@H]1O[C@@H](n2cc(Br)c3c(N)ncnc32)[C@H](O)[C@@H]1O [SGC 0946]
How it was run: as §1

[2] = compound: O=C(Nc1ccc2[nH]nc(-c3ccncc3)c2c1)[C@@H]1CCN(CC(=O)N2CCN(c3ccc(-c4ncccn4)cc3)CC2)C1
How it was run: as §1

Tofacitinib = compound: C[C@@H]1CCN(C(=O)CC#N)C[C@@H]1N(C)c1ncnc2[nH]ccc12 [Tofacitinib]
How it was run: as §1

Chlorambucil = compound: O=C(O)CCCc1ccc(N(CCCl)CCCl)cc1 [Chlorambucil]
How it was run: as §1

Palbociclib = compound: CC(=O)c1c(C)c2cnc(Nc3ccc(N4CCNCC4)cn3)nc2n(C2CCCC2)c1=O [Palbociclib]
How it was run: as §1

I-BET-762 = compound: CCNC(=O)C[C@@H]1N=C(c2ccc(Cl)cc2)c2cc(OC)ccc2-n2c(C)nnc21 [I-BET-762]
How it was run: as §1

Entospletinib = compound: c1cn2cc(-c3ccc4cn[nH]c4c3)nc(Nc3ccc(N4CCOCC4)cc3)c2n1 [Entospletinib]
How it was run: as §1

## primary AML patient cells (S055)
CPI-169; 0.024 µM
  viability: 0.982
CPI-169; 0.12 µM
  viability: 0.989
CPI-169; 0.6 µM
  viability: 1.07
CPI-169; 3 µM
  viability: 1.03
CPI-169; 15 µM
  viability: 1
EPZ-6438; 0.024 µM
  viability: 1.01
EPZ-6438; 0.12 µM
  viability: 1.04
EPZ-6438; 0.6 µM
  viability: 0.976
EPZ-6438; 3 µM
  viability: 0.97
EPZ-6438; 15 µM
  viability: 0.917
[1]; 0.024 µM
  viability: 0.953
[1]; 0.12 µM
  viability: 1.03
[1]; 0.6 µM
  viability: 0.997
[1]; 3 µM
  viability: 0.923
[1]; 15 µM
  viability: 0.994
Etoposide; 0.032 µM
  viability: 1.03
Etoposide; 0.16 µM
  viability: 1
Etoposide; 0.8 µM
  viability: 0.989
Etoposide; 4 µM
  viability: 1.03
Etoposide; 20 µM
  viability: 0.937
Thalidomide; 0.032 µM
  viability: 0.916
Thalidomide; 0.16 µM
  viability: 0.94
Thalidomide; 0.8 µM
  viability: 0.894
Thalidomide; 4 µM
  viability: 0.931
Thalidomide; 20 µM
  viability: 0.876
Pomalidomide; 0.0032 µM
  viability: 0.955
Pomalidomide; 0.016 µM
  viability: 0.951
Pomalidomide; 0.08 µM
  viability: 0.978
Pomalidomide; 0.4 µM
  viability: 0.966
Pomalidomide; 2 µM
  viability: 0.975
SGC 0946; 0.024 µM
  viability: 0.987
SGC 0946; 0.12 µM
  viability: 1
SGC 0946; 0.6 µM
  viability: 1.02
SGC 0946; 3 µM
  viability: 0.986
SGC 0946; 15 µM
  viability: 0.836
[2]; 0.008 µM
  viability: 0.929
[2]; 0.04 µM
  viability: 0.819
[2]; 0.2 µM
  viability: 0.652
[2]; 1 µM
  viability: 0.52
[2]; 5 µM
  viability: 0.498
Tofacitinib; 0.024 µM
  viability: 0.979
Tofacitinib; 0.12 µM
  viability: 0.964
Tofacitinib; 0.6 µM
  viability: 0.913
Tofacitinib; 3 µM
  viability: 0.949
Tofacitinib; 15 µM
  viability: 0.946
Chlorambucil; 0.032 µM
  viability: 0.993
Chlorambucil; 0.16 µM
  viability: 1.04
Chlorambucil; 0.8 µM
  viability: 0.988
Chlorambucil; 4 µM
  viability: 0.997
Chlorambucil; 20 µM
  viability: 0.841

## primary DLBCL patient cells (S049)
Palbociclib; 0.024 µM
  viability: 0.999
Palbociclib; 0.12 µM
  viability: 0.968
Palbociclib; 0.6 µM
  viability: 0.88
Palbociclib; 3 µM
  viability: 0.496
Palbociclib; 15 µM
  viability: 0.0932
CPI-169; 0.024 µM
  viability: 1.03
CPI-169; 0.12 µM
  viability: 1.02
CPI-169; 0.6 µM
  viability: 1.05
CPI-169; 3 µM
  viability: 0.991
CPI-169; 15 µM
  viability: 0.97
EPZ-6438; 0.024 µM
  viability: 1.08
EPZ-6438; 0.12 µM
  viability: 1.08
EPZ-6438; 0.6 µM
  viability: 1.03
EPZ-6438; 3 µM
  viability: 1.05
EPZ-6438; 15 µM
  viability: 0.811
I-BET-762; 0.008 µM
  viability: 0.982
I-BET-762; 0.04 µM
  viability: 1.02
I-BET-762; 0.2 µM
  viability: 0.987
I-BET-762; 1 µM
  viability: 0.552
I-BET-762; 5 µM
  viability: 0.246
Etoposide; 0.032 µM
  viability: 0.907
Etoposide; 0.16 µM
  viability: 1.01
Etoposide; 0.8 µM
  viability: 0.962
Etoposide; 4 µM
  viability: 0.882
Etoposide; 20 µM
  viability: 0.548
Thalidomide; 0.032 µM
  viability: 0.902
Thalidomide; 0.16 µM
  viability: 0.864
Thalidomide; 0.8 µM
  viability: 0.918
Thalidomide; 4 µM
  viability: 0.968
Thalidomide; 20 µM
  viability: 1.03
Pomalidomide; 0.0032 µM
  viability: 0.959
Pomalidomide; 0.016 µM
  viability: 1.11
Pomalidomide; 0.08 µM
  viability: 1
Pomalidomide; 0.4 µM
  viability: 0.899
Pomalidomide; 2 µM
  viability: 0.948
SGC 0946; 0.024 µM
  viability: 0.919
SGC 0946; 0.12 µM
  viability: 1.05
SGC 0946; 0.6 µM
  viability: 0.926
SGC 0946; 3 µM
  viability: 0.719
SGC 0946; 15 µM
  viability: 0.183
[2]; 0.008 µM
  viability: 0.611
[2]; 0.04 µM
  viability: 0.53
[2]; 0.2 µM
  viability: 0.396
[2]; 1 µM
  viability: 0.304
[2]; 5 µM
  viability: 0.245
Tofacitinib; 0.024 µM
  viability: 0.811
Tofacitinib; 0.12 µM
  viability: 0.775
Tofacitinib; 0.6 µM
  viability: 0.926
Tofacitinib; 3 µM
  viability: 1.01
Tofacitinib; 15 µM
  viability: 1.32
Chlorambucil; 0.032 µM
  viability: 0.96
Chlorambucil; 0.16 µM
  viability: 0.976
Chlorambucil; 0.8 µM
  viability: 1.05
Chlorambucil; 4 µM
  viability: 0.952
Chlorambucil; 20 µM
  viability: 0.589
Entospletinib; 0.024 µM
  viability: 0.951
Entospletinib; 0.12 µM
  viability: 0.834
Entospletinib; 0.6 µM
  viability: 0.804
Entospletinib; 3 µM
  viability: 0.886
Entospletinib; 15 µM
  viability: 0.892
